Data from ChEMBL document CHEMBL4480396 (Eur J Med Chem, 2019).

Tests used:
Assay type in all cases: functional, cell-based
PC-3 = test: Antiproliferative activity against human PC3 cells measured after 48 hrs by MTT assay; conditions: PC-3, 48 h
HepG2 = test: Antiproliferative activity against human HepG2 cells measured after 48 hrs by MTT assay; conditions: HepG2, 48 h
MGC-803 [1] = test: Antiproliferative activity against human MGC803 cells measured after 48 hrs by MTT assay; conditions: MGC-803, 48 h
MGC-803 [2] = test: Antiproliferative activity against human MGC803 cells measured after 48 hrs by CCK8 assay; conditions: MGC-803, 48 h

Row | SMILES | IC50 (PC-3) [µM] | IC50 (HepG2) [µM] | IC50 (MGC-803 [1]) [µM] | IC50 (MGC-803 [2]) [µM]
1 | COc1ccc(CN(C(=O)Cn2cc(COc3ccccc3)nn2)c2cc(OC)c(OC)c(OC)c2)cc1 | 45.3 | 20.5 | 12.5 | 
2 | COc1ccc(CN(C(=O)Cn2cc(CNS(=O)(=O)c3ccc(Br)cc3)nn2)c2cc(OC)c(OC)c(OC)c2)cc1 | 12.5 | 7.37 | 0.43 | 
3 | COc1cc2c(c(OC)c1OC)-c1ccc(OC)c(=O)cc1[C@@H](NC(C)=O)CC2 [COLCHICINE] | 0.59 | 4.6 | 0.27 | 
4 | COc1ccc(CN(C(=O)Cn2cc(CSc3nnnn3C)nn2)c2cc(OC)c(OC)c(OC)c2)cc1 | 10.9 | 28.3 | 6.57 | 
5 | COc1cc(N2C(=O)[C@H](c3cccs3)[C@H]2c2cccc(N=[N+]=[N-])c2)cc(OC)c1OC |  |  |  | 0.106
